Assays:
[1] = system: Colletotrichum orbiculare; experiment: Test Example H: Anthracnose on cucumber; details: in Cucumis sativus, read-out: control value
Procedure: (§1) Disease development in Test Examples described below was evaluated in increments of 0.05 by setting 0 as no incidence of disease and 3 as disease development in a plant of untreated group. Further, control values were calculated using the following equation based on disease development.
(§2) <Control Value> Control value=100{1−(n/3)}
(§3) n=Disease development of each treated group
Seeds of a test plant (cucumber variety: Sagami Hanjiro) were planted and cultivated until the first leaf appeared. In the test, the inventive compounds were dissolved into a dimethyl sulfoxide-methanol mixture solution (volume ratio: 9/1), and the resultant solutions were diluted with well water to a concentration of 250 ppm. The thus-obtained dilutions were sprayed to the test plant (2.5 ml/pot). After the dilutions dried, a conidial suspension (2-4×10^5 conidia/ml) of Colletotrichum orbiculare was inoculated to the plant by spraying. After the inoculation, the plant was kept in a mist chamber at room temperature of 20 to 23° C. for about 24 hours to promote the onset of disease. The disease development was investigated 6 to 10 days after the inoculation, and the effectiveness of the dilutions was evaluated.

[2] = system: Alternaia brassicicola; experiment: Test Example C: Alternaria sooty spot on cabbage; details: Brassica oleracea, read-out: control value
Procedure: as §1, §2, §3
Seeds of a test plant (cabbage variety: Shikidori) were planted and cultivated until the cotyledons extended. In the test, the inventive compounds were dissolved into a dimethyl sulfoxide-methanol mixture solution (volume ratio: 9/1), and the resultant solutions were diluted with well water to a concentration of 250 ppm. The thus-obtained dilutions were sprayed to the test plant (2.5 ml/pot). After the dilutions dried, a conidial suspension (4-8×10^5 conidia/ml) of Alternaia brassicicola was inoculated to the plant by spraying. After the inoculation, the plant was kept in a mist chamber at room temperature of 20 to 23° C. for about 48 hours to promote the onset of disease. The disease development was investigated 2 to 3 days after the inoculation, and the effectiveness of the dilutions was evaluated.

[3] = system: Puccinia recondita; experiment: Test Example E: Brown rust on wheat; format: in vivo; details: 250 ppm sprayed (2.5 ml/pot) on wheat (Norin 61), disease development 7 to 10 days after inoculation
[4] = system: Blumeria graminis f. sp. hordei; experiment: Test Example D: Powdery mildew on barley; details: in Hordeum vulgare, read-out: control value
Procedure: as §1, §2, §3
Seeds of a test plant (barley variety: Akashinriki) were planted and cultivated until the first leaves appeared. In the test, the inventive compounds were dissolved into a dimethyl sulfoxide-methanol mixture solution (volume ratio: 9/1), and the resultant solutions were diluted with well water to a concentration of 250 ppm. The thus-obtained dilutions were sprayed to the test plant (2.5 ml/pot). After the dilutions dried, conidia of Blumeria graminis f. sp. hordei were inoculated to the plant by shaking off. The disease development was investigated 6 to 10 days after the inoculation, and the effectiveness of the dilutions was evaluated.

[5] = system: Botrytis cinerea; experiment: Test Example B: Gray mold on tomato; details: in Solanum lycopersicum, read-out: control value
Procedure: as §1, §2, §3
Seeds of a test plant (tomato variety: Oogata Fukuju) were planted and cultivated until three to five first leaves (true leaves) appeared. In the test, the inventive compounds were dissolved into a dimethyl sulfoxide-methanol mixture solution (volume ratio: 9/1), and the resultant solutions were diluted with well water to a concentration of 250 ppm. The thus-obtained dilutions were sprayed to the test plant (2.5 ml/pot). After the dilutions dried, a conidial suspension (4-8×10^5 conidia/ml) of Botrytis cinerea was inoculated to the plant by spraying. After the inoculation, the plant was kept in a mist chamber at room temperature of 20 to 23° C. for about 48 hours to promote the onset of disease. The disease development was investigated 2 to 3 days after the inoculation, and the effectiveness of the dilutions was evaluated.

[6] = system: Magnaporthe grisea; experiment: whole plant or invertebrate; format: in vivo; details: Pyricularia oryzae, in Oryza sativa, read-out: control value

Measured: pest or weed control at 250 ppm

CCN1C(=O)CCC(c2cc(F)cc(F)c2Cl)=C1c1ccc(F)cc1 [compound 11, 5-(2-chloro-3,5-difluorophenyl)-1-ethyl-6-(4-fluorophenyl)-3,4-dihydropyridin-2(1H)-one]
> 50%: all assays above

CCn1c(-c2ccc(F)cc2)c(-c2cc(F)cc(F)c2Cl)ccc1=O [compound 12, 5-(2-chloro-3,5-difluorophenyl)-1-ethyl-6-(4-fluorophenyl)pyridin-2(1H)-one]
> 50%: all assays above

CCn1c(-c2ccc(F)cc2)c(-c2cc(F)cc(F)c2Cl)cc(Cl)c1=O [compound 13, 3-chloro-5-(2-chloro-3,5-difluorophenyl)-1-ethyl-6-(4-fluorophenyl)pyridin-2(1H)-one]
> 50%: all assays above

CCn1c(-c2ccc(F)cc2)c(-c2cc(F)cc(F)c2Cl)cc(Br)c1=O [compound 14, 3-bromo-5-(2-chloro-3,5-difluorophenyl)-1-ethyl-6-(4-fluorophenyl)pyridin-2(1H)-one]
> 50%: all assays above

CCn1c(-c2ccc(F)cc2)c(-c2cc(F)cc(F)c2Cl)cc(C)c1=O [compound 27, 5-(2-Chloro-3,5-difluorophenyl)-1-ethyl-6-(4-fluorophenyl)-3-methylpyridin-2(1H)-one]
> 50%: all assays above

O=C1CCC(c2cc(F)cc(F)c2Cl)=C(c2ccc(F)cc2)N1CC(F)F [compound 29, 5-(2-chloro-3,5-difluorophenyl)-1-(2,2-difluoroethyl)-6-(4-fluorophenyl)-3,4-dihydropy ridin-2(1H)-one]
> 50%: [1] | [3] | [4] | [6]

O=c1ccc(-c2cc(F)cc(F)c2Cl)c(-c2ccc(F)cc2)n1CC(F)F [compound 30, 5-(2-chloro-3,5-difluorophenyl)-1-(2,2-difluoroethyl)-6-(4-fluorophenyl)pyridin-2(1H)-one]
> 50%: all assays above

O=c1c(Cl)cc(-c2cc(F)cc(F)c2Cl)c(-c2ccc(F)cc2)n1CC(F)F [compound 31, 3-chloro-5-(2-chloro-3,5-difluorophenyl)-1-(2,2-difluoroethyl)-6-(4-fluorophenyl)pyridin-2(1H)-one]
> 50%: all assays above

CCn1c(-c2ccc(F)cc2)c(-c2cc(OC)ccc2Cl)ccc1=O [compound 33, 5-(2-chloro-5-methoxyphenyl)-1-ethyl-6-(4-fluorophenyl)pyridin-2(1H)-one]
> 50%: all assays above

CCn1c(-c2ccc(F)cc2)c(-c2cc(OC)ccc2Cl)cc(Cl)c1=O [compound 44, 3-Chloro-5-(2-chloro-5-methoxyphenyl)-1-ethyl-6-(4-fluorophenyl)pyridin-2(1H)-one]
> 50%: all assays above

CCn1c(-c2ccc(F)cc2)c(-c2cc(OCOC)ccc2Cl)cc(Cl)c1=O [compound 248, 3-chloro-5-(2-chloro-5-(methoxymethoxy)phenyl)-1-ethyl-6-(4-fluorophenyl)pyridin-2(1H)-one]
> 50%: all assays above

CCn1c(-c2ccc(F)cc2)c(-c2cccnc2Cl)ccc1=O [compound 288, 2′-chloro-1-ethyl-2-(4-fluorophenyl)-[3,3′-bipyridin]-6(1H)-one]
> 50%: all assays above

CCn1c(-c2ccc(F)cc2)c(-c2cccnc2Cl)cc(Cl)c1=O [compound 291, 2′,5-dichloro-1-ethyl-2-(4-fluorophenyl)-[3,3′-bipyridin]-6(1H)-one]
> 50%: all assays above

CCn1c(-c2ccc(F)cc2)c(-c2cc(O)ccc2Cl)cc(Cl)c1=O [compound 340, 3-chloro-5-(2-chloro-5-hydroxyphenyl)-1-ethyl-6-(4-fluorophenyl)pyridin-2(1H)-one]
> 50%: all assays above

From patent US11051513B2, “Pyridone compounds and agricultural and horticultural fungicides containing the same as active ingredients” (MITSUI CHEMICALS AGRO, INC., priority 2017, dated 2021)
